Laboratory results taken from PubChem BioAssay (NCI).
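Test compounds were applied to cells in 96-well plates for 48 hours at 5 doses. TGI denotes the concentration required for complete inhibition of growth.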

Columns and labels:
Experiment in all cases: DTP human tumour cell line panel, 48 h
XF 498 CNS = system: XF 498 CNS
HL-60(TB) leukemia = system: HL-60(TB) leukemia
SR leukemia = system: SR leukemia
CAKI-1 renal = system: CAKI-1 renal
786-0 renal = system: 786-0 renal
COLO 205 colon = system: COLO 205 colon
M14 melanoma = system: M14 melanoma
SN12C renal = system: SN12C renal
RXF-631 renal = system: RXF-631 renal
HOP-62 NSCLC = system: HOP-62 NSCLC
SNB-75 CNS = system: SNB-75 CNS
IGROV1 ovarian = system: IGROV1 ovarian
LXFL 529 NSCLC = system: LXFL 529 NSCLC
SF-268 CNS = system: SF-268 CNS
SK-MEL-2 melanoma = system: SK-MEL-2 melanoma
HCC-2998 colon = system: HCC-2998 colon
SNB-78 CNS = system: SNB-78 CNS
M19-MEL melanoma = system: M19-MEL melanoma
NCI-H522 lung = system: NCI-H522 lung
UO-31 renal = system: UO-31 renal
SK-MEL-28 melanoma = system: SK-MEL-28 melanoma
SF-539 CNS = system: SF-539 CNS
DLD-1 colon = system: DLD-1 colon
CCRF-CEM leukemia = system: CCRF-CEM leukemia
NCI-H226 lung = system: NCI-H226 lung
OVCAR-4 ovarian = system: OVCAR-4 ovarian
MALME-3M melanoma = system: MALME-3M melanoma
K-562 leukemia = system: K-562 leukemia
A498 renal = system: A498 renal
HCT-116 colon = system: HCT-116 colon
NCI-H460 lung = system: NCI-H460 lung
HOP-92 NSCLC = system: HOP-92 NSCLC
UACC-62 melanoma = system: UACC-62 melanoma
SK-OV-3 ovarian = system: SK-OV-3 ovarian
NCI-H23 lung = system: NCI-H23 lung
DMS 273 small cell lung = system: DMS 273 small cell lung
DMS 114 small cell lung = system: DMS 114 small cell lung
A549 NSCLC = system: A549 NSCLC
HOP-18 NSCLC = system: HOP-18 NSCLC
LOX IMVI melanoma = system: LOX IMVI melanoma
SK-MEL-5 melanoma = system: SK-MEL-5 melanoma
UACC-257 melanoma = system: UACC-257 melanoma
OVCAR-5 ovarian = system: OVCAR-5 ovarian
HT29 colon = system: HT29 colon
KM12 colon = system: KM12 colon
SW-620 colon = system: SW-620 colon
U251 CNS = system: U251 CNS
MOLT-4 leukemia = system: MOLT-4 leukemia
OVCAR-8 ovarian = system: OVCAR-8 ovarian
SF-295 CNS = system: SF-295 CNS
HCT-15 colon = system: HCT-15 colon
RPMI-8226 leukemia = system: RPMI-8226 leukemia
TK-10 renal = system: TK-10 renal
KM20L2 colon = system: KM20L2 colon
EKVX NSCLC = system: EKVX NSCLC
OVCAR-3 ovarian = system: OVCAR-3 ovarian
SNB-19 CNS = system: SNB-19 CNS
ACHN renal = system: ACHN renal
RXF 393 renal = system: RXF 393 renal

Measured: TGI

COc1cc([C@H]2Oc3c(c(O)cc4oc(-c5ccccc5)cc(=O)c34)O[C@@H]2CO)ccc1O
38.5 µM: M14 melanoma
36.2 µM: HL-60(TB) leukemia
25 µM: DMS 273 small cell lung
23.7 µM: CCRF-CEM leukemia
56.4 µM: DLD-1 colon
83.4 µM: MALME-3M melanoma
57.6 µM: SK-MEL-2 melanoma
87.6 µM: HOP-92 NSCLC
32.5 µM: NCI-H460 lung
62.7 µM: RXF-631 renal
36.7 µM: SR leukemia
> 100 µM: XF 498 CNS | CAKI-1 renal | 786-0 renal | COLO 205 colon | SN12C renal | HOP-62 NSCLC | SNB-75 CNS | IGROV1 ovarian | LXFL 529 NSCLC | SF-268 CNS | HCC-2998 colon | SNB-78 CNS | M19-MEL melanoma | NCI-H522 lung | UO-31 renal | SK-MEL-28 melanoma | SF-539 CNS | NCI-H226 lung | OVCAR-4 ovarian | K-562 leukemia | A498 renal | HCT-116 colon | UACC-62 melanoma | SK-OV-3 ovarian | NCI-H23 lung | DMS 114 small cell lung

O=c1nc2cc(-c3ccccc3)[nH]c2nn1-c1c(Cl)cc(Cl)cc1Cl
54.2 µM: OVCAR-3 ovarian
94 µM: SK-MEL-2 melanoma
57.5 µM: KM20L2 colon
64 µM: HOP-92 NSCLC
47 µM: UO-31 renal
34.2 µM: U251 CNS
35.6 µM: UACC-62 melanoma
79.6 µM: UACC-257 melanoma
62.5 µM: SR leukemia
> 100 µM: 786-0 renal | RXF-631 renal | OVCAR-5 ovarian | IGROV1 ovarian | LXFL 529 NSCLC | SF-268 CNS | SW-620 colon | SNB-78 CNS | SK-MEL-28 melanoma | DLD-1 colon | HCT-15 colon | K-562 leukemia | NCI-H460 lung | DMS 273 small cell lung | DMS 114 small cell lung | SNB-19 CNS
93.2 µM: SF-295 CNS
61.1 µM: RPMI-8226 leukemia
56.4 µM: SK-MEL-5 melanoma
59.3 µM: M14 melanoma
60.9 µM: NCI-H226 lung
65.7 µM: MALME-3M melanoma
64.5 µM: MOLT-4 leukemia
63.2 µM: M19-MEL melanoma
89.7 µM: A498 renal
57.1 µM: HL-60(TB) leukemia
44.9 µM: HOP-18 NSCLC
50 µM: LOX IMVI melanoma
69.4 µM: TK-10 renal
88.7 µM: HT29 colon
39.2 µM: KM12 colon
68.5 µM: CAKI-1 renal
74 µM: EKVX NSCLC
32.9 µM: COLO 205 colon
40.1 µM: HCT-116 colon
50.2 µM: NCI-H23 lung
76.2 µM: CCRF-CEM leukemia
64.1 µM: XF 498 CNS
33.5 µM: SF-539 CNS
32 µM: HCC-2998 colon
56.5 µM: HOP-62 NSCLC
92.4 µM: SK-OV-3 ovarian
95.8 µM: OVCAR-8 ovarian
83.7 µM: SN12C renal
91.7 µM: A549 NSCLC
52.1 µM: NCI-H522 lung

O=C1C2=C(c3ccccc31)C(c1ccccc1Cl)N1C(=O)CSC1=N2 (stereo not drawn)
88.7 µM: NCI-H522 lung
> 100 µM: XF 498 CNS | HL-60(TB) leukemia | A549 NSCLC | CAKI-1 renal | LOX IMVI melanoma | 786-0 renal | COLO 205 colon | M14 melanoma | SN12C renal | SK-MEL-5 melanoma | RXF-631 renal | HOP-62 NSCLC | UACC-257 melanoma | OVCAR-5 ovarian | SNB-75 CNS | HT29 colon | IGROV1 ovarian | KM12 colon | LXFL 529 NSCLC | SF-268 CNS | SW-620 colon | SK-MEL-2 melanoma | HCC-2998 colon | U251 CNS | M19-MEL melanoma | MOLT-4 leukemia | OVCAR-8 ovarian | SF-295 CNS | UO-31 renal | SK-MEL-28 melanoma | SF-539 CNS | DLD-1 colon | CCRF-CEM leukemia | HCT-15 colon | NCI-H226 lung | OVCAR-4 ovarian | RPMI-8226 leukemia | MALME-3M melanoma | K-562 leukemia | A498 renal | HCT-116 colon | TK-10 renal | NCI-H460 lung | HOP-92 NSCLC | UACC-62 melanoma | SK-OV-3 ovarian | KM20L2 colon | ACHN renal | EKVX NSCLC | NCI-H23 lung | DMS 273 small cell lung | DMS 114 small cell lung | OVCAR-3 ovarian | SNB-19 CNS

CCc1cccc(C)c1NC(=O)NS(=O)(=O)c1ccc(C)cc1
> 100 µM: XF 498 CNS | HL-60(TB) leukemia | A549 NSCLC | HOP-18 NSCLC | CAKI-1 renal | LOX IMVI melanoma | 786-0 renal | COLO 205 colon | M14 melanoma | SN12C renal | SK-MEL-5 melanoma | RXF-631 renal | HOP-62 NSCLC | UACC-257 melanoma | OVCAR-5 ovarian | SNB-75 CNS | IGROV1 ovarian | KM12 colon | LXFL 529 NSCLC | SF-268 CNS | SW-620 colon | SK-MEL-2 melanoma | HCC-2998 colon | SNB-78 CNS | U251 CNS | M19-MEL melanoma | MOLT-4 leukemia | NCI-H522 lung | OVCAR-8 ovarian | SF-295 CNS | RXF 393 renal | UO-31 renal | SK-MEL-28 melanoma | SF-539 CNS | DLD-1 colon | CCRF-CEM leukemia | HCT-15 colon | OVCAR-4 ovarian | RPMI-8226 leukemia | MALME-3M melanoma | K-562 leukemia | A498 renal | HCT-116 colon | TK-10 renal | NCI-H460 lung | HOP-92 NSCLC | UACC-62 melanoma | SK-OV-3 ovarian | KM20L2 colon | ACHN renal | EKVX NSCLC | NCI-H23 lung | DMS 273 small cell lung | DMS 114 small cell lung | OVCAR-3 ovarian | SNB-19 CNS
